From PubChem BioAssay AID2305 (GlaxoSmithKline (GSK), 2010) come the findings set out here.

SMILES strings stand for the structures.

The test deals with P. falciparum 3D7 growth, pLDH absorbance. Description: blood-stage malaria parasite growth potency – strain 3D7, dose response (AID 2305).
What is called IC50 is the midpoint of a concentration-inhibition curve. `Cc1[nH]c(C)c(C(F)(F)F)c(=O)c1-c1ccc(Oc2ccc(OC(F)(F)F)cc2)cc1` registered an IC50 of 170 nM.

`Cc1ccc(O)cc1Nc1ccnc2cc(-c3csc(CNCCN4CCOCC4)n3)ccc12` came in with an IC50 of 880 nM. Next, `COc1cc(Cc2cnc(N)nc2N)cc(OCCCN2C(=O)c3ccccc3C2=O)c1OC`: 990 nM. Next, `COc1ccc2nccc([C@@H](O)CN3CCC(NCc4cc5c(F)ccc(F)c5[nH]4)CC3)c2c1`: 140 nM; `COc1ccccc1C1CCN(CCCCNC(=O)c2ccc(NC(=O)c3ccc(Cl)cc3)cc2)CC1`: 240 nM; `S=C(NCCc1ccc(Cl)cc1)N1CCC(CN2CCC(c3c[nH]c4ccccc34)CC2)CC1`: 1000 nM.

Turning to `CN(C)c1ccc(CN2CCCCC(NC(=O)c3cc(-c4ccccc4Cl)cs3)C2)cc1` (stereo not given), the IC50 came to 1060 nM. Next, `CCN(CC)c1cc(C)c2cc(NC(=O)c3cc(=O)c4ccccc4o3)ccc2n1`: 220 nM; `CC(C)(C)c1nn(-c2ccccc2)c2[nH]c(=O)c(CNC3CCCCC3)cc12`: 1250 nM; `COc1ccc(Nc2nc(NN=Cc3ccc(O)cc3)nc(Nc3ccc([N+](=O)[O-])cc3)n2)cc1`: 1120 nM. Next, `CC(C)c1ccc(C=CC(=O)NC2CCC(CN3CCC(c4c[nH]c5ccccc45)CC3)CC2)cc1` (stereo not given): 810 nM; `N#Cc1cc(C(=O)Nc2ccccc2)c(N)nc1SCC(=O)Nc1ccc(Br)cc1`: 1100 nM. Under `Cc1ccccc1Nc1cc(Nc2ccccc2C)c2ccccc2n1` stands 780 nM; under `CCC1CN2CCc3c([nH]c4ccc(OC)cc34)[C@@H]2C[C@@H]1CC1NCCc2cc(OC)c(OC)cc21` (stereo not given in full), 860 nM; under `OCCCCCCN=Cc1[nH]c(=S)sc1O`, 850 nM. Molecule `CCOC(=O)c1ccc(N2CCCCC2)c(NC(=O)C(Cl)(Cl)Cl)c1` yielded an IC50 of 850 nM.

Consider `COc1ccc(CC2(c3ccc(F)cc3)N=C(N)N(CCCc3ccc4c(c3)OCO4)C2=O)cc1` (stereo not given), for which the IC50 is 740 nM.

`CNC(=O)c1[nH]c(-c2ccccc2)nc1NC(C)=O` showed an IC50 of 150 nM. Under `Oc1ccccc1CNCC(O)c1cc(C(F)(F)F)cc(C(F)(F)F)c1` (stereo not given) stands 180 nM; under `Cc1ccc(C2=NNC3(S2)C(=O)N(C)c2ccccc23)cc1` (stereo not given), 1020 nM; under `CC(C)(C)CNc1noc(-c2sccc2Br)n1`, 1120 nM.

Regarding `CCCCCCCCNCC(O)c1ccc(Cl)c(Cl)c1` (stereo not given), the IC50 is 820 nM. Next, `C=CCOc1ccccc1CNCC(O)c1cccc(C(F)(F)F)c1` (stereo not given): 840 nM; `CCN(CC)CCOc1ccc(C(O)(C#CC(O)(c2ccc(Br)cc2)c2ccc(OCCN(CC)CC)cc2)c2ccc(Br)cc2)cc1` (stereo not given): 620 nM.

For the molecule `CC(Cc1ccc(C(=O)Nc2ccc(CC(C)NCCc3cccc(Cl)c3)cc2)cc1)NCCc1ccc(C(F)(F)F)cc1` (stereo not given), the IC50 worked out at 570 nM. On to `Cc1cc(Cl)ccc1NC(=O)NCCCCCN1CCC(c2c[nH]c3ccccc23)CC1`, for which the IC50 was determined as 1010 nM. Molecule `CCN(CC)CCOc1c(Cl)cc(Cl)cc1CNCCCNc1cc(=O)c2ccccc2[nH]1` gave a concentration for half-maximal inhibition (IC50) of 870 nM. As to `Cc1cc(C)c(NC(=O)N2CCCN(CCCCCNC(=O)/C=C/c3ccc(Cl)c(Cl)c3)CC2)c(C)c1`, the IC50 was 970 nM. `C[C@H](NC(=O)[C@H](CCCCNC(=O)OC(C)(C)C)NC(=O)OC(C)(C)c1ccc(-c2ccccc2)cc1)C(=O)OCc1ccccc1`: the IC50 amounted to 180 nM. Regarding `Cc1cc(NN=Cc2ccc([N+](=O)[O-])cc2)c2ccc(F)cc2n1`, the IC50 worked out at 890 nM. Next, `O=C(/C=C/c1ccc(Cl)cc1)NCCCCCN1CCC(C(=O)Nc2ccc(Cl)c(Cl)c2)CC1`: 770 nM.

As for `CCc1ccc(NC(=O)C=NN=C(N)N)cc1`, the IC50 was determined as 900 nM.

In the case of `O=C(Nc1cc(C(F)(F)F)cc(C(F)(F)F)c1)c1cc(Cl)ccc1O`, the IC50 was 1310 nM. Next, `O=C(Nc1cccc(F)c1)c1ccc(C(=O)NC2CCN(CC3CCCCC3)C2)cc1` (stereo not given): 930 nM; `Oc1cccc(C2CCCN(CCc3c[nH]c4ccccc34)C2)c1` (stereo not given): 860 nM.
